For 4 compounds, IC50 results are on record in ChEMBL document CHEMBL4002553, “Dragmacidins G and H, Bisindole Alkaloids Tethered by a Guanidino Ethylthiopyrazine Moiety, from a Lipastrotethya sp. Marine Sponge” (J Nat Prod, 2016).

This experiment concerns HeLa. Put plainly: Cytotoxicity against human HeLa cells after 72 hrs by MTT assay. It is filed as functional, cell-based.
`N=C(N)NCCSc1nc(-c2c[nH]c3cc(Br)ccc23)cnc1-c1c[nH]c2cc(Br)ccc12` came in with an IC50 of 4.2 µM. Compound `N=C(N)NCCSc1nc(-c2c[nH]c3ccccc23)cnc1-c1c[nH]c2cc(Br)ccc12` showed a concentration for half-maximal inhibition (IC50) of 4.6 µM.

As for `O=C(c1nc(-c2c[nH]c3cc(Br)ccc23)c[nH]1)c1c[nH]c2cc(O)ccc12` [BROMOTOPSENTIN], the 50% inhibitory concentration (IC50) worked out at 1.7 µM.

Consider `O=C(c1nc(-c2c[nH]c3ccccc23)c[nH]1)c1c[nH]c2cc(O)ccc12` [TOPSENTIN], for which the IC50 is 4.4 µM.

Usually IC50 stands for the concentration that gives 50% inhibition. Low readings indicate inhibition by little substance, high ones a need for much substance.
